Read-outs that look alike come from different tables or passages of the source.
Key:
MES-SA/Dx-5 cells = test: Cell proliferation assay (resazurin, CellTiter-Blue), MES-SA/Dx-5 cells; type: cell-based; conditions: Homo sapiens
Procedure: (§1) Cell Culture: All cell-culture work was conducted in a class II biological safety cabinet. H460 cells (P2-P4, American Type Culture Collection) were maintained in RPMI-1640 medium supplemented with 10% fetal bovine serum (FBS). HL-60 cells (P2-P4, American Type Cuture Collection) were maintained in RPMI-1640 medium supplemented with 10% FBS. MES-SA/Dx-5 cells (P2-P4, European Collection of Authenticated Cell Cultures) were maintained in McCoy's 5A medium supplemented with 10% FBS.
(§2) Cell Proliferation Assay: H460 and MES-SA/Dx-5 cells were grown to approximately 80% confluence, and then were trpysinized, collected, and pelleted by centrifugation (10 min at 183 x g, 24° C.), and HL-60 cells were grown to confluence and directly pelleted by centrifugation (10 min at 183 × g, 24° C.). The supernatant was discarded and the cell pellet was resuspended in 10 mL of fresh medium. A sample was diluted 10-fold in fresh medium, and the concentration of cells was determined using a hemacytometer. The cell suspension was diluted to a concentration of 3000 cells/100 μL. The wells of a pre-sterilized 96-well plate were charged with 100 μL per well of the diluted cellular suspension. The plate was incubated for 24 h at 37° C. (5% CO2).
(§3) Stock solutions of each compound in DMSO were diluted with the appropriate media to 100 nM solutions (1% DMSO), which were then serially diluted with the appropriate media, and 100-uL aliquots of the resulting solutions were added to the wells containing adhered cells to achieve final concentrations of 0.39 nM to 50 nM. After incubating at 37° C. for 72 h (5% CO2), 20 μL of resazurin solution (Promega CellTiter-Blue® Cell Viability Assay) was added to each well. After incubating at 37° C. for 2.0 h (5% CO2), the fluorescence (544 nm excitation/590 nm emission) was recorded using a microplate reader (SpectraMax PLUS384) as a measure of viable cells.
(§4) Percent growth inhibition was calculated for each well, based upon the following formula: Percent growth inhibition=100×(S−B0)/(Bt−B0) where S is the sample fluorescence, Bt is the average fluorescence of an untreated population of cells at the completion of the assay, and B0 is the average fluorescence of an untreated population of cells at the beginning of the assay.
(§5) Each compound was assayed at eight separate concentrations per experiment. The percent inhibition at each concentration was plotted against log (concentration), and a curve fit was generated using the XLfit4 plugin (IDBS Software) running in Excel (Microsoft). GI50 values were computed to reflect the concentrations at which the resulting curves pass through 50% inhibition.

H460 cells = test: Cell proliferation assay (resazurin, CellTiter-Blue), H460 cells; type: cell-based; conditions: for GI50: Homo sapiens, NCI-H460, 72 h; for Effect of the C16 modification on potency (in words): comment on the data of Table 2 (H460 cells)
Procedure: as §1, §2, §3, §4, §5

[1] = 1H NMR studies of decomposition of the C16 thiol; type: physicochemical; conditions: on an hour time scale
[2] = Drug-linker stability assay (LC-MS); type: physicochemical; conditions: after 1 week, physiologically relevant pH and temperature (37 C)
Procedure: Stability Assay: In a 1.5 mL screw-top conical plastic vial, 42 (FIG. 1A) or 39 (FIG. 1B) was dissolved in 270 μL of DMSO (5 mM). 12 μL of this DMSO drug-linker solution was mixed with 576 μL pH 5.0 sodium acetate buffer (50 mM sodium acetate, 100 mM NaCl, 4 mM EDTA). 1-naphthalene acetic acid in DMSO (12 μL, 5 mM, 1 equiv.) was added as an internal standard. The vial was then placed in a heating block at 37 C and protected from direct light. 25 μL aliquots of the reaction mixture were removed at 0 h, 4 h, 24 h, 48 h, 72 h, and 1 week and analyzed by LC-MS. LC-MS peaks were integrated using Agilent OpenLab ChemStation and the areas of each peak were normalized to 1-napthalene acetic acid at 280 nM. Percent drug-linker remaining is defined as the normalized peak area at a given time point divided by the normalized peak area at 0 hours x 100%. Each assay was also performed at pH 7.4 (phosphate-buffered solution, Corning), and assays at each pH value were performed with and without the addition of 8 mM N-acetylcysteine.

cathepsin B = target: T1, cathepsin B (Homo sapiens, UniProt P07858); test: Drug-linker release assay with cathepsin B (LC-MS); type: in vitro ADME; conditions: cathepsin B enzyme solution in buffer; cathepsin B added, pH 5.0 sodium acetate buffer, 37 C; read-out: Half-life of liberation of the C16 primary amine warhead
T1 construct: purchased Enzo Life Sciences
Procedure: Release Assay: In a 1.5 mL screw-top conical plastic vial, 42 was dissolved in 270 μL of DMSO (5 mM). 12 μL of this DMSO drug-linker solution was mixed with a DMSO solution of N-acetylcysteine (10 mM, 12 μL, 2 equiv.). To the solution was then added 510 μL pH 5.0 sodium acetate buffer (50 mM sodium acetate, 100 mM NaCl, 4 mM EDTA, 8 mM N-acetylcysteine). 1—Naphthalene acetic acid in DMSO (12 μL, 5 mM, 1 equiv.) was added as an internal standard. The vial was then placed in a heating block at 37 C for 30 minutes. After 30 minutes, 54 μL of cathepsin B solution (379 U/mL, Enzo Life Sciences) was added. The vial was returned to the heating block at 37 C and protected from direct light. 25 μL aliquots of the reaction mixture were removed at 0 min, 20 min, 40 min, 60 min, 120 min, and 180 min and analyzed by LC-MS. LC-MS peaks were integrated using Agilent OpenLab ChemStation and the areas of each peak were normalized to 1-napthalene acetic acid at 280 nM. Percent drug-linker remaining is defined as the normalized peak area at a given time point divided by the normalized peak area at 0 hours×100% (FIG. 2A). A similar procedure was used for the release assay of 39, using glucuronidase instead of cathepsin B (FIG. 2B).

[3] = system: Ramos cells (B lymphocyte cells); test: Growth inhibition of Ramos cells; type: cell-based; conditions: Homo sapiens
Procedure: as §3, §4, §5

[4] = patients with metastatic cancer; only problematic at doses beyond those which affected tumor volume decrease; cited from earlier work
[5] = MES-SA/Dx5, MES-SA/Dx-5 cells, 72 h incubation, read-out: GI50

For COc1c2c(c(O)c3c4c(c(C)cc13)C1OC3(CO)OC1[C@@](OC)(O4)[C@@]31CO1)C(=O)CCC2 (stereo partly drawn) [TP-1], the GI50 (MES-SA/Dx-5 cells; MES-SA/Dx5, 72 h) was 0.008 µM.
COc1c2c(c(O)c3c4c(c(C)cc13)C1OC3(COCc5ccccc5)OC1[C@@](O)(O4)[C@@]31CO1)C(=O)CCC2 (stereo partly drawn) [TP-4] gave a GI50 (MES-SA/Dx-5 cells; [5]) of over 0.1 µM.
For CCCOCC12OC3c4c(C)cc5c(OC)c6c(c(O)c5c4O[C@](OC)(C3O1)[C@@]21CO1)C(=O)CCC6 (stereo partly drawn) [TP-5], the GI50 (MES-SA/Dx-5 cells; [5]) was 0.025 µM.
In the case of C=CCOCC12OC3c4c(C)cc5c(OC)c6c(c(O)c5c4O[C@](OC)(C3O1)[C@@]21CO1)C(=O)CCC6 (stereo partly drawn) [TP-6], the GI50 (MES-SA/Dx-5 cells; [5]) is reported as 0.017 µM.
In the case of C#CCOCC12OC3c4c(C)cc5c(OC)c6c(c(O)c5c4O[C@](OC)(C3O1)[C@@]21CO1)C(=O)CCC6 (stereo partly drawn) [TP-7], the GI50 (MES-SA/Dx-5 cells; MES-SA/Dx5, 72 h) is reported as 0.015 µM.
Work on COc1c2c(c(O)c3c4c(c(C)cc13)C1OC3(CN=[N+]=[N-])OC1[C@@](OC)(O4)[C@@]31CO1)C(=O)CCC2 (stereo partly drawn) [TP-9] yielded a GI50 (MES-SA/Dx-5 cells; MES-SA/Dx5, 72 h) of 0.033 µM.
In the case of COc1c2c(c(O)c3c4c(c(C)cc13)C1OC3(COC5CC(C)(O)C(OC(C)=O)C(C)O5)OC1[C@@](OC)(O4)[C@@]31CO1)C(=O)CCC2 (stereo partly drawn) [TP-12], the GI50 (MES-SA/Dx-5 cells; MES-SA/Dx5, 72 h) is reported as 0.05 µM.
In the case of COc1c2c(c(O)c3c4c(c(C)cc13)C1OC3(CS)OC1[C@@](OC)(O4)[C@@]31CO1)C(=O)CCC2 (stereo partly drawn) [compound 34, (25,2'S,3a′R,13a′R)-12′-hydroxy-2′-(mercaptomethyl)-7′,13a′-dimethoxy-5′-methyl-3a′, 4′,8′,9′,10′,13a′-hexahydro-2′H,11′H-spiro [oxirane-2,1′-[2,4]epoxyfuro[3,2-b]naphtho[2,3-h]chromen]-11′-one], the GI50 (H460 cells) is reported as over 0.1 µM, the “Effect of the C16 modification on potency (in words)” value (H460 cells) is reported as “lack of activity” and the “Decomposition of the unprotected thiol” value [1] is reported as “rapid, non-productive, decomposition pathway”.
For COc1c2c(c(O)c3c4c(c(C)cc13)[C@@H]1O[C@]3(COP(=O)(O)O)O[C@@H]1[C@@](OC)(O4)[C@@]31CO1)C(=O)CCC2 [compound 35, ((2R,2′R,3a'S,4'S,13a′R)-12′-hydroxy-7′,13a′-dimethoxy-5′-methyl-11′-oxo-3a′,8′,9′,10′,11′,13a′-hexahydro-2′H,4′H-spiro [oxirane-2,1′-[2,4]epoxyfuro[3,2-b]naphtho[2,3-h]chromen]-2′-yl)methyl dihydrogen phosphate], the GI50 (H460 cells) was 0.035 µM and the “Effect of the C16 modification on potency (in words)” value (H460 cells) was “good tolerance”.
Compound COc1c2c(c(O)c3c4c(c(C)cc13)[C@@H]1O[C@]3(CNC(=O)OCc5ccc(O[C@@H]6O[C@H](C(=O)O)[C@@H](O)[C@H](O)[C@H]6O)c(-n6cc(COCCOCCOCCOCCN7C(=O)C=CC7=O)nn6)c5)O[C@H]1[C@@](OC)(O4)[C@@]31CO1)C(=O)CCC2 [compound 39, (2S,3S,4S,5R,6S)-6-(2-(4-(13-(2,5-Dioxo-2,5-dihydro-1H-pyrrol-1-yl)-2,5,8,11-tetraoxatridecyl)-1H-1,2,3-triazol-1-yl)-4-((((((2R,2′R,3a′R,4'S,13a′R)-12′-hydroxy-7′,13a′-dimethoxy-5′-methyl-11′-oxo-3a′,8′,9′,10′,11′,13a′-hexahydro-2′H, 4′H-spiro [oxirane-2,1′-[2.4]epoxyfuro[3,2-b]naphtho[2,3-h]chromen]-2′-yl)methyl)carbamoyl)oxy)methyl)phenoxy)-3,4,5-trihydroxytetrahydro-2H-pyran-2-carboxylic acid] has a Percent drug-linker remaining [2] of 75%.
Compound COc1c2c(c(O)c3c4c(c(C)cc13)[C@H]1O[C@]3(CNC(=O)OCc5ccc(NC(=O)[C@H](C)NC(=O)[C@@H](NC(=O)CCOCCOCCOCCOCCN6C(=O)C=CC6=O)C(C)C)cc5)O[C@@H]1C(OC)(O4)[C@@]31CO1)C(=O)CCC2 (stereo partly drawn) [compound 42, 4-((17S,20S)-1-(2,5-dioxo-2,5-dihydro-1H-pyrrol-1-yl)-17-isopropyl-20-methyl-15,18-dioxo-3,6,9,12-tetraoxa-16,19-diazahenicosan-21-amido)benzyl (((2R,2′R,3a'S,4′R)-12′-hydroxy-7′,13a′-dimethoxy-5′-methyl-11′-oxo-3a′,8′,9′,10′, 11′, 13a′-hexahydro-2′H,4′H-spiro [oxirane-2,1′-[2,4]epoxyfuro[3,2-b]naphtho[2,3-h]chromen]-2′-yl)methyl)carbamate] has a Percent drug-linker remaining [2] of 75% and a half-life at 100 µM (cathepsin B) of about 15 min.
Compound COCC12OC3c4c(C)cc5c(OC)c6c(c(O)c5c4O[C@](OC)(C3O1)[C@@]21CO1)C(=O)CCC6 (stereo partly drawn) [compound 43, (2R,2′R,3a′R,4'S, 13a′R)-12′-hydroxy-7′, 13a′-dimethoxy-2′-(methoxymethyl)-5′-methyl-3a′ 4′,8′,9′,10′,13a′-hexahydro-2′H, 11′H-spiro[oxirane-2,1′-[2,4]epoxyfuro[3,2-b]naphtho[2,3-h]chromen]-11′-one] has a GI50 [3] of 0.0026 ± 0.0008 µM.
COc1c2c(c(O)c3c4c(c(C)cc13)C1OC3(C)OC1[C@@](OC)(O4)[C@@]31CO1)C(=O)CCC2 (stereo partly drawn) [compound 45, (2R,2′R,3a'S,4'S)-12′-hydroxy-7′,13a′-dimethoxy-2′,5′-dimethyl-3a′ 4′,8′,9′,10′,13a′-hexahydro-2′H,11′H-spiro [oxirane-2,1′-[2,4]epoxyfuro[3,2-b]naphtho[2,3-h]chromen]-11′-one] showed a GI50 [3] of 0.02 ± 0.005 µM.
For LL-D49194a1, the Dose-limiting toxicity [4] is given as “pancarditis was the only significant dose-limiting toxicity”.

Source: patent publication US20250144227A1, “C-16 MODIFIED TRIOXACARCINS, ANTIBODY DRUG CONJUGATES, AND USES THEREOF” (President and Fellows of Harvard College, priority 2021, published 2025)
